Test results taken from patent US20220033389A1, “INSECTICIDAL COMPOUNDS” (SYNGENTA CROP PROTECTION AG, priority 2018, published 2022).

Columns and labels:
Assay type in all cases: in vivo
[1] = tested on: Euschistus heros (Neotropical Brown Stink Bug); experiment: Euschistus heros (neotropical brown stink bug) on soybean leaves, spray; details: 120 h, N2 nymphs, 5 days after infestation, read-out: effect in at least one of the two categories (mortality or growth inhibition)
Method: Euschistus heros(Neotropical Brown Stink Bug) Soybean leaves on agar in 24-well microtiter plates were sprayed with aqueous test solutions prepared from 10′000 ppm DMSO stock solutions. After drying the leaves were infested with N2 nymphs. The samples were assessed for mortality and growth inhibition in comparison to untreated samples 5 days after infestation.

[2] = tested on: Spodoptera littoralis (Egyptian Cotton Leaf Worm); experiment: Spodoptera littoralis (Egyptian cotton leaf worm) on cotton leaf discs; details: foliar, 72 h, L1 larvae, 3 days after infestation
Method: Spodoptera littoralis (Egyptian Cotton Leaf Worm)
Cotton leaf discs were placed onto agar in 24-well microtiter plates and sprayed with aqueous test solutions prepared from 10′000 ppm DMSO stock solutions. After drying the leaf discs were infested with five L1 larvae. The samples were assessed for mortality, anti-feeding effect, and growth inhibition in comparison to untreated samples 3 days after infestation. Control of Spodoptera littoralis by a test sample is given when at least one of the categories mortality, anti-feedant effect, and growth inhibition is higher than the untreated sample.

[3] = tested on: Plutella xylostella (Diamond Back Moth); experiment: Plutella xylostella (diamond back moth), L2 larvae on artificial diet; details: 120 h, 5 days after infestation, read-out: effect in at least one of the two categories (mortality or growth inhibition)
Method: (§1) Plutella xylostella (Diamond Back Moth)
(§2) 24-well microtiter plates with artificial diet were treated with aqueous test solutions prepared from 10′000 ppm DMSO stock solutions by pipetting. After drying, the plates were infested with L2 larvae (10 to 15 per well). The samples were assessed for mortality and growth inhibition in comparison to untreated samples 5 days after infestation.

[4] = tested on: Diabrotica balteata (Corn Root Worm); experiment: Diabrotica balteata (corn root worm) on maize sprouts, spray; details: 96 h, L2 larvae, 4 days after infestation, read-out: effect in at least one of the two categories (mortality or growth inhibition)
Method: Diabrotica balteata (Corn Root Worm)
as §2, with “Maize sprouts placed onto an agar layer in 24-well” for “24-well”, “plates” for “plates with artificial diet”, “spraying.” for “pipetting.”, “(6” for “(10”, “10” for “15”, “4” for “5”

[5] = tested on: Tetranychus urticae (Two-Spotted Spider Mite); experiment: Tetranychus urticae (two-spotted spider mite) feeding/contact activity; details: 192 h, mixed population (mobile stages), 8 days after infestation
Method: Tetranychus urticae (Two-Spotted Spider Mite): Feeding/Contact Activity
Bean leaf discs on agar in 24-well microtiter plates were sprayed with aqueous test solutions prepared from 10′000 ppm DMSO stock solutions. After drying the leaf discs were infested with a mite population of mixed ages. The samples were assessed for mortality on mixed population (mobile stages) 8 days after infestation.

[6] = tested on: Thrips tabaci (Onion Thrips); experiment: Thrips tabaci (onion thrips) feeding/contact activity; details: 144 h, mixed ages, 6 days after infestation
Method: Thrips tabaci (Onion Thrips) Feeding/Contact Activity
Sunflower leaf discs were placed on agar in 24-well microtiter plates and sprayed with aqueous test solutions prepared from 10′000 ppm DMSO stock solutions. After drying the leaf discs were infested with a thrips population of mixed ages. The samples were assessed for mortality 6 days after infestation.

[7] = tested on: Myzus persicae (Green Peach Aphid); experiment: Myzus persicae (green peach aphid) feeding/contact activity; details: 144 h, mixed ages, 6 days after infestation
Method: Myzus persicae (Green Peach Aphid): Feeding/Contact Activity
Sunflower leaf discs were placed onto agar in a 24-well microtiter plate and sprayed with aqueous test solutions prepared from 10′000 ppm DMSO stock solutions. After drying, the leaf discs were infested with an aphid population of mixed ages. The samples were assessed for mortality 6 days after infestation.

[8] = tested on: Plutella xylostella (Diamond Back Moth); experiment: Plutella xylostella (diamond back moth), eggs on artificial diet; details: 192 h, 8 days after infestation, read-out: effect in at least one of the two categories (mortality or growth inhibition)
Method: as §1
as §2, with “drying, Plutella eggs were pipetted through a plastic stencil onto a gel blotting paper and” for “drying,”, “plate was closed” for “plates were infested”, “it.” for “L2 larvae (10 to 15 per well).”, “8” for “5”

CCOC1=NOC(N(C(=O)c2ccc(C3=NO[C@@](c4cc(Cl)c(F)c(Cl)c4)(C(F)(F)F)C3)cc2C)C(=O)C2CC2)C1 (stereo partly drawn) [Compound A1, N-(cyclopropanecarbonyl)-4-[(5S)-5-(3,5-dichloro-4-fluoro-phenyl)-5-(trifluoromethyl)-4H-isoxazol-3-yl]-N-(3-ethoxy-4,5-dihydroisoxazol-5-yl)-2-methyl-benzamide]
≥ 80%: percent effect (mortality or growth inhibition) at 200 ppm [1] | percent control (mortality, anti-feedant effect or growth inhibition) at 200 ppm [2] | effect (mortality or growth inhibition) at 200 ppm [3] | percent effect (mortality or growth inhibition) at 200 ppm [4] | mortality at 200 ppm [5] | mortality at 200 ppm [6] | mortality at 200 ppm [7]

CCOC1=NOC(N(COC(=O)C(C)C)C(=O)c2ccc(C3=NO[C@@](c4cc(Cl)c(F)c(Cl)c4)(C(F)(F)F)C3)cc2C)C1 (stereo partly drawn) [Compound A2, [[4-[(5S)-5-(3,5-dichloro-4-fluoro-phenyl)-5-(trifluoromethyl)-4H-isoxazol-3-yl]-2-methyl-benzoyl]-(3-ethoxy-4,5-dihydroisoxazol-5-yl)amino]methyl 2-methylpropanoate]
≥ 80%: percent effect (mortality or growth inhibition) at 200 ppm [1] | percent control (mortality, anti-feedant effect or growth inhibition) at 200 ppm [2] | effect (mortality or growth inhibition) at 200 ppm [3] | percent effect (mortality or growth inhibition) at 200 ppm [4] | mortality at 200 ppm [5] | mortality at 200 ppm [6] | mortality at 200 ppm [7]

CCOC1=NOC(N(COC(=O)C(C)(C)C)C(=O)c2ccc(C3=NO[C@@](c4cc(Cl)c(F)c(Cl)c4)(C(F)(F)F)C3)cc2C)C1 (stereo partly drawn) [Compound A3, [[4-[(5S)-5-(3,5-dichloro-4-fluoro-phenyl)-5-(trifluoromethyl)-4H-isoxazol-3-yl]-2-methyl-benzoyl]-(3-ethoxy-4,5-dihydroisoxazol-5-yl)amino]methyl 2,2-dimethylpropanoate]
≥ 80%: percent effect (mortality or growth inhibition) at 200 ppm [1] | percent control (mortality, anti-feedant effect or growth inhibition) at 200 ppm [2] | effect (mortality or growth inhibition) at 200 ppm [3] | percent effect (mortality or growth inhibition) at 200 ppm [4] | mortality at 200 ppm [5] | mortality at 200 ppm [6] | mortality at 200 ppm [7]

CCOC1=NOC(N(CN(C)C(=O)OC)C(=O)c2ccc(C3=NO[C@@](c4cc(Cl)c(F)c(Cl)c4)(C(F)(F)F)C3)cc2C)C1 (stereo partly drawn) [Compound A4, methyl N-[[[4-[(5S)-5-(3,5-dichloro-4-fluoro-phenyl)-5-(trifluoromethyl)-4H-isoxazol-3-yl]-2-methyl-benzoyl]-(3-ethoxy-4,5-dihydroisoxazol-5-yl)amino]methyl]-N-methyl-carbamate]
≥ 80%: percent effect (mortality or growth inhibition) at 200 ppm [1] | percent control (mortality, anti-feedant effect or growth inhibition) at 200 ppm [2] | percent effect (mortality or growth inhibition) at 200 ppm [4] | mortality at 200 ppm [5] | percent effect (mortality or growth inhibition) at 200 ppm [8] | mortality at 200 ppm [6] | mortality at 200 ppm [7]

CCOC1=NOC(N(COC(=O)N(C)C)C(=O)c2ccc(C3=NO[C@@](c4cc(Cl)c(F)c(Cl)c4)(C(F)(F)F)C3)cc2C)C1 (stereo partly drawn) [Compound A5, [[4-[(5S)-5-(3,5-dichloro-4-fluoro-phenyl)-5-(trifluoromethyl)-4H-isoxazol-3-yl]-2-methyl-benzoyl]-(3-ethoxy-4,5-dihydroisoxazol-5-yl)amino]methyl N,N-dimethylcarbamate]
≥ 80%: percent effect (mortality or growth inhibition) at 200 ppm [1] | percent control (mortality, anti-feedant effect or growth inhibition) at 200 ppm [2] | percent effect (mortality or growth inhibition) at 200 ppm [4] | mortality at 200 ppm [5] | percent effect (mortality or growth inhibition) at 200 ppm [8] | mortality at 200 ppm [6]

CCOC1=NOC(N(COC(=O)OC)C(=O)c2ccc(C3=NO[C@@](c4cc(Cl)c(F)c(Cl)c4)(C(F)(F)F)C3)cc2C)C1 (stereo partly drawn) [Compound A6, [[4-[(5S)-5-(3,5-dichloro-4-fluoro-phenyl)-5-(trifluoromethyl)-4H-isoxazol-3-yl]-2-methyl-benzoyl]-(3-ethoxy-4,5-dihydroisoxazol-5-yl)amino]methyl methyl carbonate]
≥ 80%: percent effect (mortality or growth inhibition) at 200 ppm [1] | percent control (mortality, anti-feedant effect or growth inhibition) at 200 ppm [2] | percent effect (mortality or growth inhibition) at 200 ppm [8]

CCOC1=NOC(N(COC(=O)C2CC2)C(=O)c2ccc(C3=NO[C@@](c4cc(Cl)c(F)c(Cl)c4)(C(F)(F)F)C3)cc2C)C1 (stereo partly drawn) [Compound A7, [[4-[(5S)-5-(3,5-dichloro-4-fluoro-phenyl)-5-(trifluoromethyl)-4H-isoxazol-3-yl]-2-methyl-benzoyl]-(3-ethoxy-4,5-dihydroisoxazol-5-yl)amino]methyl cyclopropanecarboxylate]
≥ 80%: percent effect (mortality or growth inhibition) at 200 ppm [1] | percent control (mortality, anti-feedant effect or growth inhibition) at 200 ppm [2] | percent effect (mortality or growth inhibition) at 200 ppm [8]
